Data taken from patent US7812021B2, “Pyrrolidine aryl-ether as NK3 receptor antagonists” (Hoffmann-La Roche Inc., priority 2007, dated 2010).

What follows are compounds tested against T1, recombinant human NK3 receptor (Homo sapiens, UniProt P29371) (assay: [3H]SR142801 competition binding assay). Details: membranes from HEK293 cells transiently expressing recombinant human NK3 receptor; [3H]SR142801 radioligand; Ki by Cheng-Prussoff.
T1 construct: expressed in transfected cells; host or cells: HEK293 cells, transient expression; membranes
T1 sequence (P29371 1-465): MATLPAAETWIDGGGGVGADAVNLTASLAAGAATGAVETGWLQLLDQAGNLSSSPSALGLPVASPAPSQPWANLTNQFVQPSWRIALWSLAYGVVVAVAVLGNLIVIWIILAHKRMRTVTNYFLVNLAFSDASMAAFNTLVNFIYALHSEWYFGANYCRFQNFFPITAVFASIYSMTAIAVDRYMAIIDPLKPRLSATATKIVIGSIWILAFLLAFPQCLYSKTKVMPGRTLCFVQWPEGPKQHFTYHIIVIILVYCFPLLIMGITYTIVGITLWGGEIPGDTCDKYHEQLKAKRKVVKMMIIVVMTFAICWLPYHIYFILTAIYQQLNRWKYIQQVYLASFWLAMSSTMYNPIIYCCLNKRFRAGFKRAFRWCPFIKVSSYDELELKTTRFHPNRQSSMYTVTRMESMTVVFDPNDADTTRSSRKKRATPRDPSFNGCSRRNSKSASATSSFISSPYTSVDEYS
Procedure: [^3H]SR142801 Competition Binding Assay
hNK3 receptor binding experiment were performed using [^3H]SR142801 (Catalog No. TRK1035, specific activity: 74.0 Ci/mmol, Amersham, GE Healthcare UK limited, Buckinghamshire, UK) and membrane isolated from HEK293 cells transiently expressing recombinant human NK3 receptor. After thawing, the membrane homogenates were centrifuged at 48,000×g for 10 min at 4° C., the pellets were resuspended in the 50 mM Tris-HCl, 4 mM MnCl2, 1 μM phosphoramidon, 0.1% BSA binding buffer at pH 7.4 to a final assay concentration of 5 μg protein/well. For inhibition experiments, membranes were incubated with [^3H]SR142801 at a concentration equal to KD value of radioligand and 10 concentrations of the inhibitory compound (0.0003-10 μM) (in a total reaction volume of 500 μl) for 75 min at room temperature (RT). At the end of the incubation, membranes were filtered onto unit filter (96-well white microplate with bonded GF/C filter preincubated 1 h in 0.3% PEI+0.3% BSA, Packard BioScience, Meriden, Conn.) with a Filtermate 196 harvester (Packard BioScience) and washed 4 times with ice-cold 50 mM Tris-HCl, pH 7.4 buffer. Nonspecific binding was measured in the presence of 10 μM SB222200 for both radioligands. The radioactivity on the filter was counted (5 min) on a Packard Top-count microplate scintillation counter with quenching correction after addition of 45 μl of microscint 40 (Canberra Packard S. A., Zürich, Switzerland) and shaking for 1 h. Inhibition curves were fitted according to the Hill equation: y=100/(1+(x/IC50)^nH), where nH=slope factor using Excel-fit 4 software (Microsoft). IC50 values were derived from the inhibition curve and the affinity constant (Ki) values were calculated using the Cheng-Prussoff equation Ki=IC50/(1+[L]/KD) where [L] is the concentration of radioligand and KD is its dissociation constant at the receptor, derived from the saturation isotherm. All experiments were performed in duplicate and the mean±standard error (SEM) of the individual Ki values was calculated.

SMILES	Ki
C[C@@H](Oc1ccc(Cl)cc1)[C@@H]1CN(C(=O)N2CCN(S(C)(=O)=O)CC2)C[C@H]1c1ccc(Cl)c(Cl)c1 (mixture of isomers) [Example 36, [(3SR,4RS)-3-[(R)-1-(4-Chloro-phenoxy)-ethyl]-4-(3,4-dichloro-phenyl)-pyrrolidin-1-yl]-(4-methanesulfonyl-piperazin-1-yl)-methanone]	21.1 nM
C[C@@H]1CN(C(=O)N2C[C@@H]([C@@H](C)Oc3ccc(Cl)cn3)[C@H](c3ccc(Cl)c(Cl)c3)C2)CCN1S(C)(=O)=O (mixture of isomers) [Example 54, [(3SR,4RS)-3-[(RS)-1-(5-Chloro-pyridin-2-yloxy)-ethyl]-4-(3,4-dichloro-phenyl)-pyrrolidin-1-yl]-((R)-4-methanesulfonyl-3-methyl-piperazin-1-yl)-methanone]	2 nM
C[C@@H](Oc1ncccn1)[C@@H]1CN(C(=O)N2CCN(S(C)(=O)=O)CC2)C[C@H]1c1ccc(Cl)c(Cl)c1 (racemic) [Example 42, [(3RS,4SR)-3-(3,4-Dichloro-phenyl)-4-[(RS)-1-(pyrimidin-2-yloxy)-ethyl]-pyrrolidin-1-yl}-(4-methanesulfonyl-piperazin-1-yl)-methanone]	69.9 nM
C[C@@H](Oc1ccc(F)cc1)[C@@H]1CN(C(=O)N2CCN(S(C)(=O)=O)CC2)C[C@H]1c1ccc(Cl)c(Cl)c1 (racemic) [Example 34, {(3RS,4SR)-3-(3,4-Dichloro-phenyl)-4-[(RS)-1-(4-fluoro-phenoxy)-ethyl]-pyrrolidin-1-yl}-(4-methanesulfonyl-piperazin-1-yl)-methanone]	40.1 nM
C[C@@H](Oc1ncc(F)cn1)[C@@H]1CN(C(=O)N2CCN(S(C)(=O)=O)CC2)C[C@H]1c1ccc(Cl)c(Cl)c1 (racemic) [Example 51, {(3RS,4SR)-3-(3,4-Dichloro-phenyl)-4-[(RS)-1-(5-fluoro-pyrimidin-2-yloxy)-ethyl]-pyrrolidin-1-yl}-(4-methanesulfonyl-piperazin-1-yl)-methanone]	23.7 nM
C[C@@H](Oc1ccc(C(F)(F)F)cc1)[C@@H]1CN(C(=O)N2CCC(N(C)S(C)(=O)=O)CC2)C[C@H]1c1ccc(Cl)c(Cl)c1 (racemic) [Example 18, N-(1-{(3RS,4SR)-3-(3,4-Dichloro-phenyl)-4-[(RS)-1-(4-trifluoromethyl-phenoxy)-ethyl]-pyrrolidine-1-carbonyl}-piperidin-4-yl)-N-methyl-methanesulfonamide]	77.9 nM
C[C@@H](Oc1ccc(C(F)(F)F)cc1)[C@@H]1CN(C(=O)N2CCN(CCN(C)C)CC2)C[C@H]1c1ccc(Cl)c(Cl)c1 (racemic) [Example 52]	42.5 nM
C[C@H](Oc1ccc(F)cc1)[C@@H]1CN(C(=O)N2CCN(S(C)(=O)=O)CC2)C[C@H]1c1ccc(Cl)c(Cl)c1 (racemic) [Example 46, {(3RS,4SR)-3-(3,4-Dichloro-phenyl)-4-[(SR)-1-(4-fluoro-phenoxy)-ethyl]-pyrrolidin-1-yl}-(4-methanesulfonyl-piperazin-1-yl)-methanone]	49.7 nM
C[C@@H](Oc1ccc(C#N)cc1)[C@@H]1CN(C(=O)N2CCN(S(C)(=O)=O)CC2)C[C@H]1c1ccc(Cl)c(Cl)c1 (racemic) [Example 33, 4-{(RS)-1-[(3SR,4RS)-4-(3,4-Dichloro-phenyl)-1-(4-methanesulfonyl-piperazine-1-carbonyl)-pyrrolidin-3-yl]ethoxy}-benzonitrile]	75.6 nM
C[C@H](Oc1ccc(C#N)cc1)[C@@H]1CN(C(=O)N2CCN(S(C)(=O)=O)CC2)C[C@H]1c1ccc(Cl)c(Cl)c1 (racemic) [Example 45, 4-{(SR)-1-[(3SR,4RS)-4-(3,4-Dichloro-phenyl)-1-(4-methanesulfonyl-piperazine-1-carbonyl)-pyrrolidin-3-yl]-ethoxy}-benzonitrile]	95.4 nM
C[C@@H]1CN(C(=O)N2C[C@@H]([C@@H](C)Oc3ccc(C(F)(F)F)cc3)[C@H](c3ccc(Cl)c(Cl)c3)C2)CCN1S(C)(=O)=O (mixture of isomers) [Example 27, {(3RS,4SR)-3-(3,4-Dichloro-phenyl)-4-[(RS)-1-(4-trifluoromethyl-phenoxy)-ethyl]-pyrrolidin-1-yl}-((R)-4-methanesulfonyl-3-methyl-piperazin-1-yl)-methanone]	9.6 nM
C[C@@H](Oc1ccc(Cl)c(Cl)c1)[C@@H]1CN(C(=O)N2CCN(S(C)(=O)=O)CC2)C[C@H]1c1ccc(Cl)c(Cl)c1 (racemic) [Example 30, [(3SR,4RS)-3-[(RS)-1-(3,4-Dichloro-phenoxy)-ethyl]-4-(3,4-dichloro-phenyl)-pyrrolidin-1-yl]-(4-methanesulfonyl-piperazin-1-yl)-methanone]	79.6 nM
C[C@@H](Oc1ccc(F)c(Cl)c1)[C@@H]1CN(C(=O)N2CCN(S(C)(=O)=O)CC2)C[C@H]1c1ccc(Cl)c(Cl)c1 (racemic) [Example 41, [(3SR,4RS)-3-[(RS)-1-(3-Chloro-4-fluoro-phenoxy)-ethyl]-4-(3,4-dichloro-phenyl)-pyrrolidin-1-yl]-(4-methanesulfonyl-piperazin-1-yl)-methanone]	49 nM

Next, values leading:

Ki	SMILES
64.7 nM	C[C@H](Oc1ccc(F)cn1)[C@@H]1CN(C(=O)N2CCN(S(C)(=O)=O)CC2)C[C@H]1c1ccc(Cl)c(Cl)c1 (racemic) [Example 57, {(3RS,4SR)-3-(3,4-Dichloro-phenyl)-4-[(SR)-1-(5-fluoro-pyridin-2-yloxy)-ethyl]-pyrrolidin-1-yl}-(4-methanesulfonyl-piperazin-1-yl)-methanone]
27 nM	C[C@@H](Oc1ccc(Cl)cn1)[C@@H]1CN(C(=O)CN2CC3CC2CO3)C[C@H]1c1ccc(Cl)c(Cl)c1 (stereo partly drawn) [Example 68, 1-[(3S,4R)-3-[(R)-1-(5-Chloro-pyridin-2-yloxy)-ethyl]-4-(3,4-dichloro-phenyl)-pyrrolidin-1-yl]-2-(2-oxa-5-aza-bicyclo[2.2.1]hept-5-yl)-ethanone]
12.6 nM	C[C@@H](Oc1ccc(F)cn1)[C@@H]1CN(C(=O)N2CCN(S(C)(=O)=O)CC2)C[C@H]1c1ccc(Cl)c(Cl)c1 (racemic) [Example 59, {(3RS,4SR)-3-(3,4-Dichloro-phenyl)-4-[(RS)-1-(5-fluoro-pyridin-2-yloxy)-ethyl]-pyrrolidin-1-yl}-(4-methanesulfonyl-piperazin-1-yl)-methanone]
20 nM	C[C@@H](Oc1ccc(Cl)cn1)[C@@H]1CN(C(=O)CCCCN2CCOCC2)C[C@H]1c1ccc(Cl)c(Cl)c1 (racemic) [Example 55, 1-[(3SR,4RS)-3-[(RS)-1-(5-Chloro-pyridin-2-yloxy)-ethyl]-4-(3,4-dichloro-phenyl)-pyrrolidin-1-yl]-5-morpholin-4-yl-pentan-1-one]
39 nM	C[C@@H](Oc1ccc(Cl)cn1)[C@@H]1CN(C(=O)N2CC3(COC3)C2)C[C@H]1c1ccc(Cl)c(Cl)c1 (racemic) [Example 61, [(3SR,4RS)-3-[(RS)-1-(5-Chloro-pyridin-2-yloxy)-ethyl]-4-(3,4-dichloro-phenyl)-pyrrolidin-1-yl]-(2-oxa-6-aza-spiro[3.3]hept-6-yl)-methanone]
19 nM	CC(=O)NC1(c2ccccc2)CCN(CC(=O)N2C[C@@H]([C@@H](C)Oc3ccc(Cl)cc3)[C@H](c3ccc(Cl)c(Cl)c3)C2)CC1 (racemic) [Example 64, N-(1-{2-[(3SR,4RS)-3-[(RS)-1-(4-Chloro-phenoxy)-ethyl]-4-(3,4-dichloro-phenyl)-pyrrolidin-1-yl]-2-oxo-ethyl}-4-phenyl-piperidin-4-yl)-acetamide]
